Earlier results on one molecule are cited in US20080214562A1, “Chemical Compounds” (priority 2005, published 2008).

The subject of the data set is T-tropic HIV. Particulars: patients that are dual tropic or where only the T-tropic form of the virus is present.

As for `c1cc(CN2CCCNCCNCCCNCC2)ccc1CN1CCCNCCNCCCNCC1` [AMD-3100], the “T-tropic HIV viral load” value is “significantly reduce”.
